Data on eleven compounds can be found in ChEMBL document CHEMBL5634108, “The latest perspectives of small molecules FMS kinase inhibitors” (Eur J Med Chem, 2023).

The target of test [1] is T1, Mast/stem cell growth factor receptor Kit (Homo sapiens, UniProt P10721). Nature of the test: Inhibition of c-Kit (unknown origin) in presence of ATP.
In test [2] the target is T2, Macrophage colony-stimulating factor 1 receptor (Homo sapiens, UniProt P07333). Nature of the test: Inhibition of CSF1R (unknown origin).
T2 sequence (P07333 whole entry): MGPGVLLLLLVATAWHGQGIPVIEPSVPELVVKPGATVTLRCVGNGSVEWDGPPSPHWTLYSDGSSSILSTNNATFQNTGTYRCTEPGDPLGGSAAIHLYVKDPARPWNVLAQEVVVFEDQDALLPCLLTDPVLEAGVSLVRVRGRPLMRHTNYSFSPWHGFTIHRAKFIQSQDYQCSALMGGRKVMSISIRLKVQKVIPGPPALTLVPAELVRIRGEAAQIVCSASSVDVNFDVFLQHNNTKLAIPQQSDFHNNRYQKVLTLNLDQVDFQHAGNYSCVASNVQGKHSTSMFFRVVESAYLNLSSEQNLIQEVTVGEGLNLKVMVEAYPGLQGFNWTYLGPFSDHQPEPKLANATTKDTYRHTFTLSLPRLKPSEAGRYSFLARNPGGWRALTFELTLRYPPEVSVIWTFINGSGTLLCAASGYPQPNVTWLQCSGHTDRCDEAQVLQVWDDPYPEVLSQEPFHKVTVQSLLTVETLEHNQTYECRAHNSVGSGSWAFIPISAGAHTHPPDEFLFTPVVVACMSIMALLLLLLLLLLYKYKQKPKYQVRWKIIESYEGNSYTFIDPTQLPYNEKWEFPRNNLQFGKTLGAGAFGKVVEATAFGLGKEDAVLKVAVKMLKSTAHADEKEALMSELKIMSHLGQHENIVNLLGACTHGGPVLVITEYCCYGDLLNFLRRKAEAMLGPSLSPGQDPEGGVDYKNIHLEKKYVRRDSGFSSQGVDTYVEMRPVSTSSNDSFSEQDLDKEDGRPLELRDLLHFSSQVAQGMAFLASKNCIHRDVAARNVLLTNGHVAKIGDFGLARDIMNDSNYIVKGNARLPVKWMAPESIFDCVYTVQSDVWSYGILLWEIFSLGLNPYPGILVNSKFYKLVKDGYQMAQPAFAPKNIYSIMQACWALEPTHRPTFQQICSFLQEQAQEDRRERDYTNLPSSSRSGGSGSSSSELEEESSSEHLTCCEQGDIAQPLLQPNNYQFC
Test [3] deals with T3, Receptor-type tyrosine-protein kinase FLT3 (Homo sapiens, UniProt P36888).
T3 sequence (P36888 whole entry): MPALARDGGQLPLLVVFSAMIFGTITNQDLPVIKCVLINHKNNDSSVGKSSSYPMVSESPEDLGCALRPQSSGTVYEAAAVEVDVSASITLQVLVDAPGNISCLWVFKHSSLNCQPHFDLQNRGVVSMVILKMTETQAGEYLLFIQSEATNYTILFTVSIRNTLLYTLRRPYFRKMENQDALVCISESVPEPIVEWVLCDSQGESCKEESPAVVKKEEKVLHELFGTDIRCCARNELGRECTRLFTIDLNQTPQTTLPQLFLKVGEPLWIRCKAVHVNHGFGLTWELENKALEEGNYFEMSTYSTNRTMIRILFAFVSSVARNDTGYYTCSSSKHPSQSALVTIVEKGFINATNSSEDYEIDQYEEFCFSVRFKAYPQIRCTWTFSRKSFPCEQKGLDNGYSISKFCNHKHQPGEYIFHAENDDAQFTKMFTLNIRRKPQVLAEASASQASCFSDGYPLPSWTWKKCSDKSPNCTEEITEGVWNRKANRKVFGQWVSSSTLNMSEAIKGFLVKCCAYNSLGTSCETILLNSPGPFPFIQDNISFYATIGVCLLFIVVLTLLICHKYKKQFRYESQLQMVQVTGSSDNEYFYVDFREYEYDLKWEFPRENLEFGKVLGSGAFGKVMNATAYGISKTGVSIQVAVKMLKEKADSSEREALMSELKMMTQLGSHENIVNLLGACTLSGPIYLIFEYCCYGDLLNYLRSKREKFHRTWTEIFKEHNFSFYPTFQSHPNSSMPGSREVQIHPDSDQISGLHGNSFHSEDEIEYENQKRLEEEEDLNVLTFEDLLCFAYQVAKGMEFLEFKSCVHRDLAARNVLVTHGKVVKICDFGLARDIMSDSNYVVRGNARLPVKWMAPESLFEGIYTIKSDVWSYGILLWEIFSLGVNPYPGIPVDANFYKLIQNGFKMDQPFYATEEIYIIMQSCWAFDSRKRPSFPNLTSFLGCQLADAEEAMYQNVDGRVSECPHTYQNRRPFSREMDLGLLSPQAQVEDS
Nature of the test: Inhibition of FLT3 (unknown origin) by enzymatic assay.

The subject of a further test is SF-268. Nature of the test: Growth inhibition of human SF-268 cells by sulforhodamine B assay. The class given is functional. For orientation: In SRB staining, fixed cells bind dye roughly in proportion to their protein.
In test [4] the target is T2, Macrophage colony-stimulating factor 1 receptor. Nature of the test: Inhibition of FMS (unknown origin) by kinase assay.
The target of test [5] is T1, Mast/stem cell growth factor receptor Kit. Nature of the test: Inhibition of KIT (unknown origin) using ATP as substrate incubated for 1 hrs by ELISA.
The target of test [6] is T4, Aurora kinase C (Homo sapiens, UniProt Q9UQB9).
T4 sequence (Q9UQB9 whole entry): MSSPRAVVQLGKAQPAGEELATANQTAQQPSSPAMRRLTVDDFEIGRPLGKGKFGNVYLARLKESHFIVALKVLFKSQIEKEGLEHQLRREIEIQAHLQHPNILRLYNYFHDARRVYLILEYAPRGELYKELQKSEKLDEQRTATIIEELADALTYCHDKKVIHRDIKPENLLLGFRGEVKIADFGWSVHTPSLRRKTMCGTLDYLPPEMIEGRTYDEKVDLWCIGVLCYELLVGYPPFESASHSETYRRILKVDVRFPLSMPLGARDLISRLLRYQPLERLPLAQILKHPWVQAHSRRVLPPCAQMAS
Nature of the test: Inhibition of AURKC (unknown origin).

Test [7] has as its target Receptor-type tyrosine-protein kinase FLT3 (Homo sapiens, UniProt P36888, ITD). Nature of the test: Inhibition of FLT3 ITD mutant (unknown origin) preincubated for 60 mins followed by ATP addition and measured after 1 hr by ADP-Glo assay.
Test [8] concerns the target T4, Aurora kinase C. Nature of the test: Inhibition of human AURKC by discoverX kinome scan assay.
Test [9] concerns the target T5, Vascular endothelial growth factor receptor 2 (Homo sapiens, UniProt P35968). Nature of the test: Inhibition of KDR (unknown origin).
For test [10], the target named is T6, Tyrosine-protein kinase receptor UFO (Homo sapiens, UniProt P30530).
T6 sequence (P30530 whole entry): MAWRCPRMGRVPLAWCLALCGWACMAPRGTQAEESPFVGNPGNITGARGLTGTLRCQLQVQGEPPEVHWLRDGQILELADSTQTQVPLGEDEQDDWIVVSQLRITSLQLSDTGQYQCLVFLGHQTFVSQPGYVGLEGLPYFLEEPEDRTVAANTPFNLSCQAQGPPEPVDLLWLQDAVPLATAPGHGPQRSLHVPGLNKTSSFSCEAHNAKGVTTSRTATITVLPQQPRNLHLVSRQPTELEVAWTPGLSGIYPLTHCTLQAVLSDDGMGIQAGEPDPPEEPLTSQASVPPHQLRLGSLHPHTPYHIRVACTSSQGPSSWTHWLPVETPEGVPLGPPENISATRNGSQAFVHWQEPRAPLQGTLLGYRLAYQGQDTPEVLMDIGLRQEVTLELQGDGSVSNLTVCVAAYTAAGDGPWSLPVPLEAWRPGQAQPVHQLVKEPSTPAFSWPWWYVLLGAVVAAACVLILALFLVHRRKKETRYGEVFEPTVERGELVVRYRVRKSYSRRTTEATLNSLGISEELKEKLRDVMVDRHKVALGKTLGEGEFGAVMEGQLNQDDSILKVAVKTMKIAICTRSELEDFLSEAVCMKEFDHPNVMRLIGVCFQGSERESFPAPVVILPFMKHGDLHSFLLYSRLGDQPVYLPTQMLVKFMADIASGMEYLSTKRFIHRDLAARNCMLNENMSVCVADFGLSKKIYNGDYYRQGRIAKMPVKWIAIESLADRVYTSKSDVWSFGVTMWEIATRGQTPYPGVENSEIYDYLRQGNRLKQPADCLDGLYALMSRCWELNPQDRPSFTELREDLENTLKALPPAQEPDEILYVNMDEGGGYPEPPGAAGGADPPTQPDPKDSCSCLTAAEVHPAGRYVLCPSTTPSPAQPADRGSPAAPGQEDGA
Nature of the test: Inhibition of AXL (unknown origin) by FRET assay.

The target in test [11] is Receptor-type tyrosine-protein kinase FLT3 (Homo sapiens) (UniProt P36888). Nature of the test: Inhibition of FLT3 (unknown origin) at 10 uM by biochemical Hotspot kinase assay relative to control.
Test [12] concerns the target T5, Vascular endothelial growth factor receptor 2. Nature of the test: Inhibition of VEGFR-2 (unknown origin) in presence of ATP incubated for 45 mins by ELISA method. For orientation: In an ELISA, binding on a coated surface is turned into a signal by an enzyme label.
Test [13] addresses T7, Tyrosine-protein kinase Lck (Homo sapiens, UniProt P06239). Nature of the test: Inhibition of LCK (unknown origin) using TK as substrate incubated for 30 mins by HTRF assay. Background: In TR-FRET formats the signal depends on donor and acceptor labels being close together.
Target sequence in this assay (P06239 whole entry): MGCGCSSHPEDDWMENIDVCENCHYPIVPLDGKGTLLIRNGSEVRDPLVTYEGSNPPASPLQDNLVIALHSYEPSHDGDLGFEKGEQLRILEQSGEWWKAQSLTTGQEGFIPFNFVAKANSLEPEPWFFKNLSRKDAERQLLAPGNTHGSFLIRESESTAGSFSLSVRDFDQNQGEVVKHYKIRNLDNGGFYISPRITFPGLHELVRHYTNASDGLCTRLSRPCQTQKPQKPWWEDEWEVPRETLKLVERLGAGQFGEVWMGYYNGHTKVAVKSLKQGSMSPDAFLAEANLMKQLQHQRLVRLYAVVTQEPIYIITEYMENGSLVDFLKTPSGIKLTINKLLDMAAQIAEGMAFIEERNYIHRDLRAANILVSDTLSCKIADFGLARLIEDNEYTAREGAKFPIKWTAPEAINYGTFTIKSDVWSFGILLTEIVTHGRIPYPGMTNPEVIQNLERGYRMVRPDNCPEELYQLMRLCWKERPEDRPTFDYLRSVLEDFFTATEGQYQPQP
Test [14] concerns the target Vascular endothelial growth factor receptor 1 (Homo sapiens, UniProt P17948). Nature of the test: Inhibition of FLT1 (unknown origin).
For test [15], the target named is T8, NT-3 growth factor receptor (Homo sapiens, UniProt Q16288). Nature of the test: Inhibition of TRKC (unknown origin).
T8 sequence (Q16288 whole entry): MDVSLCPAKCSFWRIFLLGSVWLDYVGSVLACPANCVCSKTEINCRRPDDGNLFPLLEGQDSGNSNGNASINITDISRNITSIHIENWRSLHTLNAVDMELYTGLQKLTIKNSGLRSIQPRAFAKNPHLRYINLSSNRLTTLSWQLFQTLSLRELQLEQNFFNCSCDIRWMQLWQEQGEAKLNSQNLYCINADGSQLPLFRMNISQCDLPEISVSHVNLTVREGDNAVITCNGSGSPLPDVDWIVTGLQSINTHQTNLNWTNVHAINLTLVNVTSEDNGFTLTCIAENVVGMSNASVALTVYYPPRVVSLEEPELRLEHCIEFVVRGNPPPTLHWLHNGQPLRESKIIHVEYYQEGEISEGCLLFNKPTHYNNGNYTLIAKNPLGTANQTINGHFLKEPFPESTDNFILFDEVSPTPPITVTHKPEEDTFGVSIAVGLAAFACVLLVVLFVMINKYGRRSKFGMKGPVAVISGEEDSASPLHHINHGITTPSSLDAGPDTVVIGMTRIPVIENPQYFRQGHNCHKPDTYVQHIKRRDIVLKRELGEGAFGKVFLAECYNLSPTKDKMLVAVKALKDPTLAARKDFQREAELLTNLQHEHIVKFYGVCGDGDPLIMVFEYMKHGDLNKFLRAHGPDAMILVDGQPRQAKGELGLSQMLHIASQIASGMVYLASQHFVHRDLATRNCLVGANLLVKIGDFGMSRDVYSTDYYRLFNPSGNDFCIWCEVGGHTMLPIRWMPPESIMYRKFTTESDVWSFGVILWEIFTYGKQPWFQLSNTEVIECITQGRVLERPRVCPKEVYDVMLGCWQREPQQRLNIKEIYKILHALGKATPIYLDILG
Test [16] deals with T8, NT-3 growth factor receptor. Nature of the test: Inhibition of TRKC (unknown origin) by TR-FRET assay.
In test [17] the target is Receptor-type tyrosine-protein kinase FLT3 (Homo sapiens) (UniProt P36888). Nature of the test: Inhibition of FLT3 (unknown origin) at 10 uM relative to control.
Test [18] addresses T7, Tyrosine-protein kinase Lck. Nature of the test: Inhibition of LCK (unknown origin) at 10 uM using 33P-ATP as substrate by biochemical Hotspot kinase assay relative to control.

T1 sequence (P10721 whole entry): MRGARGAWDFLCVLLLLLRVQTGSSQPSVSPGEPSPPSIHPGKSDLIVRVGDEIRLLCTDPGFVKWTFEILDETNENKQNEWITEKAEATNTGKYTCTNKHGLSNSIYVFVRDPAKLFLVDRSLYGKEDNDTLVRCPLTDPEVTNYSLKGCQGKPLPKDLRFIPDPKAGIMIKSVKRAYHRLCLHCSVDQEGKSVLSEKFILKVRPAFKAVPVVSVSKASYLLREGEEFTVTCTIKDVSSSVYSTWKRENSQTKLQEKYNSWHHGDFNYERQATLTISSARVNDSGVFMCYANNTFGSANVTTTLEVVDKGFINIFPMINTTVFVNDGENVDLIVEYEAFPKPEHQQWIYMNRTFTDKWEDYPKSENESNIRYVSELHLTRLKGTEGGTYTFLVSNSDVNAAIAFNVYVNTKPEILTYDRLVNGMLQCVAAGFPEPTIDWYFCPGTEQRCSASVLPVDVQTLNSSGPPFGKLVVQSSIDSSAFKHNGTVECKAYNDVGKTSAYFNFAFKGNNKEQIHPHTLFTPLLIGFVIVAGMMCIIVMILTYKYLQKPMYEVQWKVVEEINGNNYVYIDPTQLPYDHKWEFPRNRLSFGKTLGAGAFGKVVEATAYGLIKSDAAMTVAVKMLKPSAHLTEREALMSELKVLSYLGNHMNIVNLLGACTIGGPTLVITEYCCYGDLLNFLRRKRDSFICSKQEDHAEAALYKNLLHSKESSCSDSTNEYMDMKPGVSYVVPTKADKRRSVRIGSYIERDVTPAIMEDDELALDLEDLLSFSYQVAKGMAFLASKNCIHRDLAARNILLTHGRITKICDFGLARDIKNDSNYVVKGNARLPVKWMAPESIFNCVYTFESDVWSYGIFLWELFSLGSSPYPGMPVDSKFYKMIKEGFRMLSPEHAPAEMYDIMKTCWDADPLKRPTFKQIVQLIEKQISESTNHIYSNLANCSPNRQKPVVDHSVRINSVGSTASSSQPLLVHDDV
T5 sequence (P35968 whole entry): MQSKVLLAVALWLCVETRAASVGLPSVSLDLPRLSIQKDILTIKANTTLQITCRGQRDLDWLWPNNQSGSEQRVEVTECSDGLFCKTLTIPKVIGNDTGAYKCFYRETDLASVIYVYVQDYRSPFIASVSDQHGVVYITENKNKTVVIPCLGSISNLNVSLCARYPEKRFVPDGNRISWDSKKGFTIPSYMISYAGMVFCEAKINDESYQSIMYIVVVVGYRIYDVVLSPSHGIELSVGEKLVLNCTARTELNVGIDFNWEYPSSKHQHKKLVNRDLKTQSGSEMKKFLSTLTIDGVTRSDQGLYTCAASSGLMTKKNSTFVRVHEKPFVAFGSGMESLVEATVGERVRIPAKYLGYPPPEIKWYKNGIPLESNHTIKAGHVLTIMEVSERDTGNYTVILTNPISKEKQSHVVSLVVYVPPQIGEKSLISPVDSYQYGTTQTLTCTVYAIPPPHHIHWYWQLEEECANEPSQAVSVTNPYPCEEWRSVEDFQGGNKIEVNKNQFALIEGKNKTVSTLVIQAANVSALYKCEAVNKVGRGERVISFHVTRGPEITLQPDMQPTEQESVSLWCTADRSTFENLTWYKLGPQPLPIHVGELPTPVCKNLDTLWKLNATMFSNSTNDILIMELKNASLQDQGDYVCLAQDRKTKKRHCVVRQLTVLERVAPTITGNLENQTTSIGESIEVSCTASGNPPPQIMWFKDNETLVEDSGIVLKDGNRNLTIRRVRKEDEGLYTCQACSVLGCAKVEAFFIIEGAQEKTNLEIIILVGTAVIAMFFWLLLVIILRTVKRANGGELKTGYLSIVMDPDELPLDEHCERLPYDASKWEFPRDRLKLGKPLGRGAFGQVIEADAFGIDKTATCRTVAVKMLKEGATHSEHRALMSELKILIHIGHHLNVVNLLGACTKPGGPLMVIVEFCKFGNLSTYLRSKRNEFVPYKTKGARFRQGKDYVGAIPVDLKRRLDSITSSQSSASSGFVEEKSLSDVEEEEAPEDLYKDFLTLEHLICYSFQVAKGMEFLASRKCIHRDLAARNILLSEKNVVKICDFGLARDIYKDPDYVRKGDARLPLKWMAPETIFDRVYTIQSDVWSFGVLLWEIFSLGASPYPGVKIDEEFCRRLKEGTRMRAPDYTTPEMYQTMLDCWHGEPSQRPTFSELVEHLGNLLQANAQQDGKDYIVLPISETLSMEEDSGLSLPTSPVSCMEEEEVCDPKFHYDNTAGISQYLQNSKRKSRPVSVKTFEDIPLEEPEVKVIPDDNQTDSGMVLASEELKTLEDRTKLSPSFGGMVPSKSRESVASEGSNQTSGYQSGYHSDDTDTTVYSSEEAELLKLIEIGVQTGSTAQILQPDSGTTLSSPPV

On to `CNC(=O)c1nccc2cc(-c3cncc(Nc4ccc(OC5CC5)nc4)c3C)[nH]c12`, for which, in test [1], the IC50 (usually the concentration that gives 50% inhibition) amounted to 1.13 nM.

In test [2], `Nc1nccc2c1ccn2-c1cccc(NC(=O)c2ccc(N3CCOCC3)c(C(F)(F)F)c2)c1` yielded an IC50 of 30 nM.

In turn, `CC1(C)CC=C(c2nc(C3CC(C)(C)OC(C)(C)C3)ccc2NC(=O)c2nc(C#N)c[nH]2)CC1` [EDICOTINIB] registered an IC50 in test [3] of 190 nM.

Regarding `COc1ccc(COc2ncc(Oc3ccnc(C(=O)N[11CH3])c3)cc2OC)cc1`, the midpoint of inhibition in [2], the IC50, lay at 12 nM.

`COc1cc(NC(=O)Nc2cnc(Nc3ccc(N4CCOCC4)cc3)nc2Oc2cccc(OC)c2)cc(OC)c1`: in the test on SF-268, growth was halved (GI50) at 50300 nM. Moreover, in test [4], the IC50 came to 15 nM.

In the case of `COc1nc(F)ccc1CNc1ccc(Cc2c[nH]c3ncc(C)cc23)c(F)n1`, the IC50 in test [5] is 860 nM; against Aurora kinase C [6] it was 1000 nM; in [7], 390 nM; on Aurora kinase C [8] it was 16 nM; in test [9] it was 1100 nM.

`CNC(=O)c1cc2c(Oc3ccc(NC(=S)NC(=O)Cc4ccccc4)cc3F)ccnc2cc1OC` [TAS-115]: the IC50 in test [10] was 15 nM.

As for `COc1ccc(Oc2nc(Nc3ccc(N4CCCCC4)nc3)ncc2NC(=O)c2cc(OC)cc(OC)c2)cc1`, in [11], the inhibition (usually the relative decrease from the control value, in per cent) was 14.5%.

In the case of `FC(F)(F)c1ccc(CNc2ccc(Cc3c[nH]c4ncc(Cl)cc34)cn2)cn1` [PEXIDARTINIB], the IC50 in test [12] was determined as 350 nM; in test [13] it was 860 nM; in test [14], 880 nM; in test [15] it was 890 nM; in test [16], 20 nM.

For `Cc1nc2[nH]cc(Cc3ccc(NCc4ccc(C(F)(F)F)nc4)nc3)c2c(C)c1O`, the IC50 is 57800 nM in [2] and 1630 nM in test [1]. Moreover, in test [17], the inhibition is 8.12%.

Consider `COc1ccc(Oc2nc(Nc3ccc(N4CCOCC4)cc3)ncc2NC(=O)c2cccc(SC)c2)cc1`, for which, in test [18], the inhibition is 87.7%.
